Measured values from patent US5350864A, “Aminoalkylcarbamyl derivatives of forskolin as intermediates for the synthesis of useful forskolin derivatives” (The United States of America as represented by the …, priority 1990, dated 1994).
pKd: −log10 of the molar value. Entries after “also recorded” stand apart in the source; their conditions may differ. Like-named read-outs stand apart in the source and are kept apart here. Each block holds one compound with its values, some of them ahead of it.

Assays:
adenylate cyclase [1] = settings: literature; cited from earlier work
adenylate cyclase [2] = settings: literature; cited from earlier work; remark: listed apart in the source
[3] = mildly basic conditions; literature; cited from earlier work
[4] = system: bovine brain adenylate cyclase; assay: Activation of bovine brain adenylate cyclase; assay type: biochemical; settings: relative to forskolin
Water solubility = assay type: physicochemical; settings: relative to forskolin
glucose transporter [5] = target: T1, glucose transporter (Homo sapiens, UniProt P11166); assay: Filtration binding assay, ^125 I-labelled derivative 8 (7-^125 I-HPP-Fsk) to human red blood cell membranes
T1 construct: Crude membranes from human red blood cells; from tissue; host or cells: human red blood cells, membranes
T1 sequence (P11166 1-492): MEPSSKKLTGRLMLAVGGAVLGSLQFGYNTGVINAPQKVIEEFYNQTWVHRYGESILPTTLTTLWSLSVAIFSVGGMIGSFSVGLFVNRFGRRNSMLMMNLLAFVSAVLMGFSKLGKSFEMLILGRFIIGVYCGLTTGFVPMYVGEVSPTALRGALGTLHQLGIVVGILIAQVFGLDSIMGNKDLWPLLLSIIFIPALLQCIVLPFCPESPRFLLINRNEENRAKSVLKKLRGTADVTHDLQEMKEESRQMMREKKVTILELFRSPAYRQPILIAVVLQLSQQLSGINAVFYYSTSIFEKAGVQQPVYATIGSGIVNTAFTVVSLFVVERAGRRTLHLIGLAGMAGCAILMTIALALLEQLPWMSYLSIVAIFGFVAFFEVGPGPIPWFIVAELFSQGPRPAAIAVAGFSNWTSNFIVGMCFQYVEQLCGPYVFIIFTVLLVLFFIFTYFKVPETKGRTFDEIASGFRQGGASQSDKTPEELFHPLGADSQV
Experimental: Binding of 7-^125 IHPP-Fsk to Membranes--Crude membranes from human red blood cells were incubated for 60 minutes at 20° C. with 20,000 cpm of 7-^125 IHPP-Fsk. […] The incubations were carried out at 20° C. for 60 minutes in 12×75 glass test tubes in a total volume of 0.4 mL 50 mM Tris-HCl buffer, pH 7.4. The assay was terminated by the addition of 4 mL of cold Tris-HCl buffer to the tubes at rapid filtration over Whatman GF/C filters using a Brandel cell harvester. The assay was terminated as described above and the filters counted in a gamma counter. The nonspecific binding was calculated as the amount of label not displaced by 20 μM forskolin.

adenylate cyclase [6] = assay: Filtration binding assay, ^125 I-labelled derivative 19 (6-^125 I-HPP-Fsk) to bovine brain membranes; settings: bovine brain membranes, 20° C., 60 min
From the text: Derivative 19 (6-^125 I-HPP-Fsk) was used to develop a binding assay for adenylate cyclase (Example 4). […] Therefore, a filtration assay can be used to separate the bound from free ligand and determine the amount of high affinity binding. […] Analogs of forskolin that activate adenylate cyclase inhibit the binding of 6-^125 I-HPP-Fsk to membranes. The ability of an agent to inhibit 6-^125 I-HPP-Fsk binding to membranes is therefore indicative of its ability to stimulate adenylate cyclase.
Binding of 6-^125 I-HPP-Fsk to Membranes--Crude membranes from bovine brain were incubated for 60 minutes at […] 20° C. with 20,000 cpm of 6-^125 I-HPP-Fsk. Binding equilibrium was reached by 45 minutes and was constant for at least 2 hours (data not shown). The incubations were carried out at 20° C. for 60 minutes in 12×75 glass test tubes in a total volume of 0.4 mL […] Tris-HCl buffer, pH 7.4. The membranes (0.40 mg/tube) were incubated in the presence of 5 mM MgCl2 and 10 mM NaF. The assay was terminated by the addition of 5 mL of cold Tris-HCl buffer to the tubes and rapid filtration over Whatman GF/C filters using a Brandel cell harvester. The assay was terminated as described above and the filters counted in a gamma counter. The nonspecific binding was calculated as the amount of label not displaced by 20 uM forskolin. The non specific binding was about 20% of the total bound.

glucose transporter [7] = target: T2, glucose transporter (Homo sapiens, UniProt P11169); assay: Binding of 7-^125 I-HPP-Fsk to human platelets
T2 construct: other tissues including bovine brain, rat heart, rat muscle, and human platelets; from tissue; host or cells: human platelets
T2 sequence (P11169 1-496): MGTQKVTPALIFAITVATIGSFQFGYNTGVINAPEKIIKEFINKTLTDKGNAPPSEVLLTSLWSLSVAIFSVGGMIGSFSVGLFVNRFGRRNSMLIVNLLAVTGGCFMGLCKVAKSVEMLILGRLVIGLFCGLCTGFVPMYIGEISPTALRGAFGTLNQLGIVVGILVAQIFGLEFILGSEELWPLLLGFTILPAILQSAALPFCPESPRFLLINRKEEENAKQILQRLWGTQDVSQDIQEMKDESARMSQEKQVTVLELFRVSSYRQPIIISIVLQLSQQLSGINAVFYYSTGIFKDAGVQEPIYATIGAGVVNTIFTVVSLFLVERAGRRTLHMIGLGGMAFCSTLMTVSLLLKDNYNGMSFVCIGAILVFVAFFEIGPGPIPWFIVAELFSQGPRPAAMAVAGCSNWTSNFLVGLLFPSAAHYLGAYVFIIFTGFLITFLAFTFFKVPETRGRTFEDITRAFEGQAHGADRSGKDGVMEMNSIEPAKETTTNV
From the text: (§1) 7-^125 I-HPP-Fsk also binds with high affinity to other tissues including bovine brain, rat heart, rat muscle, and human platelets. The binding of 7-^125 I-HPP-Fsk to these tissues is inhibited by D-glucose and cytochalasin B. Therefore, 7-^125 I-HPP-Fsk binds with high affinity to the glucose transporter in diverse tissues.

glucose transporter [8] = target: T1, glucose transporter; assay: Photolabelling of human red blood cell membranes, SDS gel electrophoresis; assay type: binding
Experimental: Derivative 9 (7-AIPPS-Fsk) is incubated with human red blood cell membranes, photolyzed, and then the radioactive proteins were analyzed by SDS gel electrophoresis.

glucose transporter [9] = assay: Binding of 7-^125 I-HPP-Fsk to bovine brain
From the text: as §1

glucose transporter [10] = assay: Binding of 7-^125 I-HPP-Fsk to rat heart
From the text: as §1

glucose transporter [11] = assay: Binding of 7-^125 I-HPP-Fsk to rat muscle
From the text: as §1

adenylate cyclase [12] = assay: Photolabelling of bovine brain membranes, SDS gel electrophoresis; assay type: binding
Experimental: (§2) Derivative 20 (6-AIPPS-Fsk) is incubated with partially purified preparations of bovine brain adenylate cyclase, photolyzed, and then the radioactive proteins are analyzed by SDS gel electrophoresis. […] 6-AIPPS-Fsk can also label adenylate cyclase in crude membranes. 6-AIPPS-Fsk is incubated with bovine brain membranes, photolyzed, and the radioactive proteins are analyzed by SDS gel electrophoresis.

adenylate cyclase [13] = assay: Photolabelling of partially purified bovine brain adenylate cyclase, SDS gel electrophoresis; assay type: binding
Experimental: as §2

P-glycoprotein = P-glycoprotein (Homo sapiens, UniProt P08183)
P-glycoprotein, sequence (P08183 whole entry): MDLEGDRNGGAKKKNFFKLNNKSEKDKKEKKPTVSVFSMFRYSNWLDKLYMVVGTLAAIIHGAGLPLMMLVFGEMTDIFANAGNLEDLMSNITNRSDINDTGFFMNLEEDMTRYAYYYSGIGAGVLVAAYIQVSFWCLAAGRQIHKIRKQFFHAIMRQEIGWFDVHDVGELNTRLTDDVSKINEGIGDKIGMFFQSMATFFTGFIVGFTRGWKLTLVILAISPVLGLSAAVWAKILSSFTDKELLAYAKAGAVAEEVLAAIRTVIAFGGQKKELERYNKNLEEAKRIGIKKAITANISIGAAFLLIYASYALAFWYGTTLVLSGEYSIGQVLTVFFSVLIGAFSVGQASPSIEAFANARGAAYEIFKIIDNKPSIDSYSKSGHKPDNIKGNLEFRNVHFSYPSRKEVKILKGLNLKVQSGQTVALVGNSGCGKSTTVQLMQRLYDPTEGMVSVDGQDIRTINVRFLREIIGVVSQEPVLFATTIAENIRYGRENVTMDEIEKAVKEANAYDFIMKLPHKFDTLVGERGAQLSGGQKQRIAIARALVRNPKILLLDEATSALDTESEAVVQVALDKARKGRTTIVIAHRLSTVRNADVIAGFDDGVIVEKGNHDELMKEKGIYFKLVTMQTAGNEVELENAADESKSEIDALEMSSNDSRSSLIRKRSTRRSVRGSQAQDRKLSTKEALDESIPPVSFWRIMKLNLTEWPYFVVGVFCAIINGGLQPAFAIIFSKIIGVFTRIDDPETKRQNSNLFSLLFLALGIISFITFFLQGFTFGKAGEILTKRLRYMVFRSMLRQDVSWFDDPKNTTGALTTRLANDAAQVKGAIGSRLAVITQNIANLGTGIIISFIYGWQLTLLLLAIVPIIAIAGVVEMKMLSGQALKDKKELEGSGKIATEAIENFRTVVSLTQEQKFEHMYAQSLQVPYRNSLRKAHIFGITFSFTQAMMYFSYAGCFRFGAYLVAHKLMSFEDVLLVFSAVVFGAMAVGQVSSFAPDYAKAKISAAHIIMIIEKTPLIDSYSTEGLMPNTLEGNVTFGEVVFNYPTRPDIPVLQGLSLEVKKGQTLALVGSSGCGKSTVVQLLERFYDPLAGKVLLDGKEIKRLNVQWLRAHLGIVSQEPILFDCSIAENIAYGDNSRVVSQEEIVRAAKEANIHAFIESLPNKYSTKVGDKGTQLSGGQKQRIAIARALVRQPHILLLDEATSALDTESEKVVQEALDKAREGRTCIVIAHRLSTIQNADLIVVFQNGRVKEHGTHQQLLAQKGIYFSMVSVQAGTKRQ

SMILES: C=C[C@@]1(C)CC(=O)[C@]2(O)[C@@]3(C)[C@@H](O)CCC(C)(C)[C@@H]3[C@H](OC(C)=O)[C@H](O)[C@@]2(C)O1 [6-acetyl-7-desacetylforskolin]
activation of adenylate cyclase (adenylate cyclase [1]): less potent than forskolin

SMILES: C=C[C@@]1(C)CC(=O)[C@]2(O)[C@@]3(C)[C@@H](O)CCC(C)(C)[C@@H]3[C@H](O)[C@H](OC(=O)CCl)[C@@]2(C)O1 [7-desacetyl-7-chloroacetylforskolin]
block of forskolin binding site (adenylate cyclase [2]): block the forskolin binding site on adenylate cyclase
susceptibility to hydrolysis and rearrangement [3]: susceptible to hydrolysis and rearrangement under mildly basic conditions

SMILES: C=C[C@@]1(C)CC(=O)[C@]2(O)[C@@]3(C)[C@@H](O)CCC(C)(C)[C@@H]3[C@H](O)[C@H](OC(=O)CC)[C@@]2(C)O1 [7-desacetyl-7-propionylforskolin]
activation of adenylate cyclase (adenylate cyclase [1]): active at adenylate cyclase

SMILES: C=C[C@@]1(C)CC(=O)[C@]2(O)[C@@]3(C)[C@@H](O)CCC(C)(C)[C@@H]3[C@H](O)[C@H](O)[C@@]2(C)O1 [7-desacetylforskolin]
activation of adenylate cyclase (adenylate cyclase [1]): less potent than forskolin

SMILES: C=C[C@@]1(C)CC(=O)[C@]2(O)[C@@]3(C)[C@@H](O)CCC(C)(C)[C@@H]3[C@H](O)[C@H](OC(=O)CBr)[C@@]2(C)O1 [7-descacetyl-7-bromoacetylforskolin]
block of forskolin binding site (adenylate cyclase [2]): block the forskolin binding site on adenylate cyclase
susceptibility to hydrolysis and rearrangement [3]: susceptible to hydrolysis and rearrangement under mildly basic conditions

SMILES: C=C[C@@]1(C)CC(O)[C@]2(O)[C@@]3(C)[C@@H](O)CCC(C)(C)[C@@H]3[C@H](O)[C@H](OC(C)=O)[C@@]2(C)O1 (stereo partly drawn) [11β-hydroxyforskolin]
activation of adenylate cyclase (adenylate cyclase [1]): less potent than forskolin

SMILES: CC[C@@]1(C)CC(=O)[C@]2(O)[C@@]3(C)[C@@H](O)CCC(C)(C)[C@@H]3[C@H](O)[C@H](OC(C)=O)[C@@]2(C)O1 [14,15-dihydroforskolin]
activation of adenylate cyclase (adenylate cyclase [1]): less potent than forskolin

water solubility (Water solubility): enhanced water solubility
SMILES: C=C[C@@]1(C)CC(=O)[C@]2(O)[C@@]3(C)[C@@H](O)CCC(C)(C)[C@@H]3[C@H](OC(=O)NCCN)[C@H](OC(C)=O)[C@@]2(C)O1 [Compound 4, 6-aminoethylcarbamylforskolin]
extent of stimulation of adenylate cyclase [4]: stimulate adenylate cyclase to a greater extent than forskolin

SMILES: OC[C@H]1OC(O)[C@H](O)[C@@H](O)[C@@H]1O (stereo partly drawn) [D-glucose]
inhibition of 7-^125 I-HPP-Fsk binding (glucose transporter [5]): inhibited; also recorded: inhibition of binding
inhibition of 6-^125 I-HPP-Fsk binding (adenylate cyclase [6]): not inhibited
inhibition of 7-^125 I-HPP-Fsk binding (glucose transporter [7]): inhibited
inhibition of labelling by 7-AIPPS-Fsk (glucose transporter [8]): inhibited
inhibition of 7-^125 I-HPP-Fsk binding (glucose transporter [9]): inhibited
inhibition of 7-^125 I-HPP-Fsk binding (glucose transporter [10]): inhibited
inhibition of 7-^125 I-HPP-Fsk binding (glucose transporter [11]): inhibited

time binding was constant (glucose transporter [5]; 20° C.): at least 2 hours
time to binding equilibrium (glucose transporter [5]; 20° C.): ≤ 45 min
nonspecific binding (of total bound) (glucose transporter [5]; label not displaced by 20 μM forskolin): about 20%
pKd (glucose transporter [5]; membranes from human red blood cells, read-out: affinity of 7-^125 I-HPP-Fsk): 7.52
binding affinity (glucose transporter [7]): high affinity
binding affinity (glucose transporter [9]): high affinity
binding affinity (glucose transporter [10]): high affinity
binding affinity (glucose transporter [11]): high affinity
SMILES: C=C[C@@]1(C)CC(=O)[C@]2(O)[C@@]3(C)[C@@H](O)CCC(C)(C)[C@@H]3[C@H](O)[C@H](OC(=O)NCCNC(=O)CCc3ccc(O)c([125I])c3)[C@@]2(C)O1 [Derivative 8]
binding affinity / selectivity (glucose transporter [5]; human red blood cell glucose transporter, listed as 7-^125 I-HPP-Fsk): binds to the human red blood cell glucose transporter with high affinity; also recorded: will not detect adenylate cyclase

SMILES: C=C[C@@]1(C)CC(=O)[C@]2(O)[C@@]3(C)[C@@H](O)CCC(C)(C)[C@@H]3[C@H](O)[C@H](OC(=O)NCCNC(=O)CCc3ccc(N=[N+]=[N-])c([125I])c3)[C@@]2(C)O1 [Derivative 9]
photolabelling of glucose transporter (glucose transporter [8]; listed as 7-AIPPS-Fsk): labels the glucose transporter; also recorded: more potent at labelling the glucose transporter in human red blood cell membranes than 6-AIPPS-Fsk
photolabelling of adenylate cyclase (adenylate cyclase [12]): less efficient at labelling the adenylate cyclase than the 6-AIPPS-Fsk

SMILES: C=C[C@@]1(C)CC(=O)[C@]2(O)[C@@]3(C)[C@@H](O)CCC(C)(C)[C@@H]3[C@H](OC(=O)NCCNC(=O)CCc3ccc(N=[N+]=[N-])c([125I])c3)[C@H](OC(C)=O)[C@@]2(C)O1 [Derivative 20]
photolabelling of adenylate cyclase (adenylate cyclase [13]): covalently incorporated into the adenylate cyclase
photolabelling of P-glycoprotein (P-glycoprotein): labelled
photolabelling of adenylate cyclase (adenylate cyclase [12]): labels the adenylate cyclase in bovine brain membranes

SMILES: C=C[C@@]1(C)CC(=O)[C@]2(O)[C@@]3(C)[C@@H](O)CCC(C)(C)[C@@H]3[C@H](OC(=O)NCCNC(=O)CCc3ccc(O)cc3)[C@H](OC(C)=O)[C@@]2(C)O1 [Derivative 21]
inhibition of labelling by 6-AIPPS-Fsk (P-glycoprotein): more potent at inhibiting the labelling by 6-AIPPS-Fsk than forskolin

SMILES: OC[C@@H]1OC(O)[C@@H](O)[C@H](O)[C@H]1O (stereo partly drawn) [L-glucose]
inhibition of 7-^125 I-HPP-Fsk binding (glucose transporter [5]): not L-glucose

inhibition of 7-^125 I-HPP-Fsk binding (glucose transporter [5]; human red blood cell membranes): relatively potent
SMILES: O=C(CCc1ccc(O)cc1)c1c(O)cc(O)cc1O[C@@H]1O[C@H](CO)[C@@H](O)[C@H](O)[C@H]1O [phloridzin]
